# Test results: US20100267561A1, “HERBICIDAL PYRIDAZINONE DERIVATIVES” (priority 2007, published 2010)
# Legend:
# Type in all cases: in vivo
# [1] = tested on: winter barley (Hordeum vulgare); experiment: Test B postemergence plant response; details: for Barley plant response rating: 8 g ai/ha, postemergence, 0-100 scale; for Plant response rating, Barley: Postemergence, scale 0 to 100, 0 no effect, 100 complete control
# In short: (§1)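 Visual injury ratings on a 0–100 scale, where 100 means complete control, were made 13 to 15 days after postemergence treatment of greenhouse-grown plants at the 1- to 4-leaf stage.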
# [2] = tested on: canarygrass (Phalaris minor); experiment: Test B postemergence plant response; details: for Canarygrass plant response rating: 8 g ai/ha, postemergence, 0-100 scale; for Plant response rating, Canarygrass: Postemergence
# In short: as §1
# [3] = tested on: chickweed (Stellaria media); experiment: Test B postemergence plant response; details: for Chickweed plant response rating: 8 g ai/ha, postemergence, 0-100 scale; for Plant response rating, Chickweed: Postemergence
# In short: as §1
# [4] = tested on: windgrass (Apera spica-venti); experiment: Test B postemergence plant response; details: for Windgrass plant response rating: postemergence, 0-100 scale; for Plant response rating, Windgrass: Postemergence
# In short: as §1
# [5] = tested on: barnyardgrass (Echinochloa crus-galli); experiment: Test A pre-/postemergence plant response
# In short: (§2)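 Greenhouse pot test: loam–sand soil; pre- and postemergence sprays applied same day; post plants 2–10 cm, 1–2 leaves. Readout ~10 d, visual % injury vs untreated (0 = none, 100 = complete control).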
# [6] = tested on: wheat (Triticum aestivum); experiment: Test A pre-/postemergence plant response
# In short: as §2
# [7] = tested on: large crabgrass (Digitaria sanguinalis); experiment: Test A pre-/postemergence plant response
# In short: as §2
# [8] = tested on: pigweed (Amaranthus retroflexus); experiment: Test A pre-/postemergence plant response
# In short: as §2
# [9] = tested on: corn (Zea mays); experiment: Test A pre-/postemergence plant response
# In short: as §2
# [10] = tested on: umbrella sedge (Cyperus difformis); experiment: Test B flooded paddy test plant response
# In short: (§3)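 2-leaf plants; pots flooded 3 cm above soil; compound added to paddy water; depth maintained. Greenhouse 13–15 d. Visual rating vs controls, 0 (no effect) to 100 (complete control); dash = no result.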
# [11] = tested on: barnyardgrass (Echinochloa crus-galli); experiment: Test B flooded paddy test plant response
# In short: as §3
# [12] = tested on: ducksalad (Heteranthera limosa); experiment: Test B flooded paddy test plant response
# In short: as §3
# [13] = tested on: rice (Oryza sativa); experiment: Test B flooded paddy test plant response
# In short: as §3
# [14] = 62 g ai/ha, scale 0 to 100, 0 no effect, 100 complete control
# [15] = Postemergence, 31 g ai/ha, 0 to 100 scale (0 no effect, 100 complete control)
# [16] = Postemergence, 125 g ai/ha, 0 to 100 scale, 0 no effect, 100 complete control
# [17] = Preemergence, 31 g ai/ha, 0 to 100 scale, 0 is no effect, 100 is complete control
# [18] = Preemergence, 125 g ai/ha, 0 to 100 scale (0 no effect, 100 complete control)
# [19] = Flood (flooded paddy test), 62 g ai/ha, scale 0 to 100, 0 no effect, 100 complete control
# [20] = Flood (flooded paddy test), 125 g ai/ha, scale 0 to 100, 0 no effect, 100 complete control
# [21] = Flood (flooded paddy test), 250 g ai/ha, scale 0 to 100, 0 no effect, 100 complete control
# [22] = Flood, 31 g ai/ha, scale 0 to 100
compound,measurement,setting,value
Cc1cc(-c2ccc(Cl)cc2)nn1-c1c(OC(=S)N(C)C)cnn(C)c1=O [Compound 69],Barley plant response rating,[1],0
same,"Plant response rating, Barley",[1]; 16 g ai/ha,0
same,"Plant response rating, Barley",[1]; 31 g ai/ha,0
same,"Plant response rating, Barley",[1]; 62 g ai/ha,0
same,Canarygrass plant response rating,[2],0
same,"Plant response rating, Canarygrass","[2]; 16 g ai/ha, scale 0 to 100",0
same,"Plant response rating, Canarygrass","[2]; 31 g ai/ha, scale 0 to 100",0
same,"Plant response rating, Canarygrass",[2]; [14],0
same,Chickweed plant response rating,[3],0
same,"Plant response rating, Chickweed","[3]; 16 g ai/ha, scale 0 to 100",0
same,"Plant response rating, Chickweed","[3]; 31 g ai/ha, scale 0 to 100",0
same,"Plant response rating, Chickweed",[3]; [14],0
same,Windgrass plant response rating,[4]; 8 g ai/ha,0
same,Windgrass plant response rating,[4]; 16 g ai/ha,0
same,"Plant response rating, Windgrass","[4]; 31 g ai/ha, scale 0 to 100",10
same,"Plant response rating, Windgrass",[4]; [14],40
same,"Plant response rating, Barnyardgrass",[5]; [15],90
same,"Plant response rating, Barnyardgrass",[5]; [16],100
same,"Plant response rating, Barnyardgrass",[5]; [17],20
same,"Plant response rating, Barnyardgrass",[5]; [18],70
same,"Plant response rating, Wheat",[6]; [15],0
same,"Plant response rating, Wheat",[6]; [16],30
same,"Plant response rating, Wheat",[6]; [17],0
same,"Plant response rating, Wheat",[6]; [18],0
same,"Plant response rating, Crabgrass, Large",[7]; [15],40
same,"Plant response rating, Crabgrass, Large",[7]; [16],80
same,"Plant response rating, Crabgrass, Large",[7]; [17],0
same,"Plant response rating, Crabgrass, Large",[7]; [18],90
same,"Plant response rating, Pigweed",[8]; [15],0
same,"Plant response rating, Pigweed",[8]; [16],0
same,"Plant response rating, Pigweed",[8]; [17],0
same,"Plant response rating, Pigweed",[8]; [18],0
same,"Plant response rating, Corn",[9]; [15],60
same,"Plant response rating, Corn",[9]; [16],90
same,"Plant response rating, Corn",[9]; [17],20
same,"Plant response rating, Corn",[9]; [18],30
same,"Plant response rating, Sedge, Umbrella",[10]; [19],0
same,"Plant response rating, Sedge, Umbrella",[10]; [20],0
same,"Plant response rating, Sedge, Umbrella",[10]; [21],0
same,"Plant response rating, Sedge, Umbrella",[10]; [22],0
same,"Plant response rating, Barnyardgrass",[11]; [19],0
same,"Plant response rating, Barnyardgrass",[11]; [20],0
same,"Plant response rating, Barnyardgrass",[11]; [21],0
same,"Plant response rating, Barnyardgrass",[11]; [22],0
same,"Plant response rating, Ducksalad",[12]; [19],0
same,"Plant response rating, Ducksalad",[12]; [20],0
same,"Plant response rating, Ducksalad",[12]; [21],0
same,"Plant response rating, Ducksalad",[12]; [22],0
same,"Plant response rating, Rice",[13]; [19],0
same,"Plant response rating, Rice",[13]; [20],0
same,"Plant response rating, Rice",[13]; [21],0
same,"Plant response rating, Rice",[13]; [22],0
COCc1cc(-c2ccc(Br)cc2)nn1-c1c(O)cnn(C)c1=O [Compound 68],Barley plant response rating,[1],0
same,"Plant response rating, Barley",[1]; 16 g ai/ha,0
same,"Plant response rating, Barley",[1]; 31 g ai/ha,0
same,"Plant response rating, Barley",[1]; 62 g ai/ha,0
same,Canarygrass plant response rating,[2],0
same,"Plant response rating, Canarygrass","[2]; 16 g ai/ha, scale 0 to 100",0
same,"Plant response rating, Canarygrass","[2]; 31 g ai/ha, scale 0 to 100",0
same,"Plant response rating, Canarygrass",[2]; [14],10
same,Chickweed plant response rating,[3],0
same,"Plant response rating, Chickweed","[3]; 16 g ai/ha, scale 0 to 100",0
same,"Plant response rating, Chickweed","[3]; 31 g ai/ha, scale 0 to 100",0
same,"Plant response rating, Chickweed",[3]; [14],0
same,Windgrass plant response rating,[4]; 8 g ai/ha,0
same,Windgrass plant response rating,[4]; 16 g ai/ha,0
same,"Plant response rating, Windgrass","[4]; 31 g ai/ha, scale 0 to 100",0
same,"Plant response rating, Windgrass",[4]; [14],35
same,"Plant response rating, Barnyardgrass",[5]; [15],10
same,"Plant response rating, Barnyardgrass",[5]; [16],100
same,"Plant response rating, Barnyardgrass",[5]; [17],0
same,"Plant response rating, Barnyardgrass",[5]; [18],90
same,"Plant response rating, Wheat",[6]; [15],0
same,"Plant response rating, Wheat",[6]; [16],0
same,"Plant response rating, Wheat",[6]; [17],0
same,"Plant response rating, Crabgrass, Large",[7]; [15],10
same,"Plant response rating, Crabgrass, Large",[7]; [16],10
same,"Plant response rating, Crabgrass, Large",[7]; [17],0
same,"Plant response rating, Crabgrass, Large",[7]; [18],10
same,"Plant response rating, Pigweed",[8]; [15],0
same,"Plant response rating, Pigweed",[8]; [16],0
same,"Plant response rating, Pigweed",[8]; [17],0
same,"Plant response rating, Pigweed",[8]; [18],0
same,"Plant response rating, Corn",[9]; [15],0
same,"Plant response rating, Corn",[9]; [16],50
same,"Plant response rating, Corn",[9]; [17],0
same,"Plant response rating, Corn",[9]; [18],0
same,"Plant response rating, Sedge, Umbrella",[10]; [19],0
same,"Plant response rating, Sedge, Umbrella",[10]; [20],0
same,"Plant response rating, Sedge, Umbrella",[10]; [21],0
same,"Plant response rating, Sedge, Umbrella",[10]; [22],0
same,"Plant response rating, Barnyardgrass",[11]; [19],0
same,"Plant response rating, Barnyardgrass",[11]; [20],0
same,"Plant response rating, Barnyardgrass",[11]; [21],0
same,"Plant response rating, Barnyardgrass",[11]; [22],0
same,"Plant response rating, Ducksalad",[12]; [19],0
same,"Plant response rating, Ducksalad",[12]; [20],0
same,"Plant response rating, Ducksalad",[12]; [21],0
same,"Plant response rating, Ducksalad",[12]; [22],0
same,"Plant response rating, Rice",[13]; [19],0
same,"Plant response rating, Rice",[13]; [20],0
same,"Plant response rating, Rice",[13]; [21],0
same,"Plant response rating, Rice",[13]; [22],0
